Test results reported in US20250109127A1, “METHODS OF USE OF PHENOXYPROPYLAMINE COMPOUNDS TO TREAT DEPRESSION” (Minerva Neurosciences, Inc., priority 2013, published 2025).
Several values for one entry are separate records, joined by “and”; a condition that tells them apart may be missing. Equal entries are not always repeated. Structures can show the parent of a compound that is named as a salt.

Tested on: 5-HIAA release in the rat prefrontal cortex
Assay: Microdialysis: 5-HIAA release in prefrontal cortex after I.P. administration
Assay type: in vivo
Conditions: for 5-HIAA (% of respective basal), individual animal: 0.1 mg/kg I.P., c2-c9 = R#13,14,20,19,25,26,31,32; for 5-HIAA (% of respective basal), individual animal / 5-HIAA release, individual animals: hydrochloride; for 5-HIAA release, MEAN / 5-HIAA release, individual animals: 0.3 mg/kg I.P.; for 5-HIAA release, MEAN: n = 8; for 5-HIAA release, individual animals: one column per animal R#11,12,18,23,29,30,17,24
Procedure: The aim of the study was to evaluate, using microdialysis, the effects of an intraperitoneal (I.P.) administration in rats of three different doses of SON-117 on dopamine and its metabolites, serotonin and its metabolite (5-HIAA), and norepinephrine levels in prefrontal cortex.
Thirty-two adult male Wistar rats were used for the whole study (4 groups of eight animals planned for the study, Table 1).
Surgery was performed on rats weighing about 300 g at the beginning of the experiments. Rats were anaesthetized with Ketamine (50 mg/kg) & Xylazine (15 mg/kg) by intramuscular administration. The animals were placed in a stereotaxic apparatus in the flat-skull position at a constant setting of −3.3 mm between ear bars and the incisor bar. The animals were treated with a local anesthesic (xylocaine 1%, Astra Zeneca) and an analgesic (Temgesic, from Schering Plough, 0.05 mg/kg, s.c.). A rostrocaudal midline incision was made with a lancet to expose the dorsal skull surface. The “stereotaxic zero” was defined by the Bregma in accordance with Paxinos and Watson's atlas (1986). A hole was drilled in the skull with a drill and the meninges were pierced with a sterile needle to implant a CMA12 guide cannula which later received the dialysis probe.
Coordinates used for implanting guide cannula in prefrontal cortex from Bregma were anteroposterior 3.7 mm, mediolateral 0.8 mm, and dorsoventral −2 mm (top of the probe was at −5 mm). The guide cannula was fixed to the skull with two stainless steel screws (1.88 mm outside diameter) anchored. An application of dental cement was added. A plastic collar allowed each animal to be tethered to a Swivel assembly of the CMA 120 awake animal system. Following surgery, rats were kept in individual cages and allowed to recover for a minimum of 3-5 days before the experimentation. The rats were handled and put in plastic bowl for 10 min at least every day to habituate the animals to their new environment for the dialysis. An I.P. administration with saline was also performed every day.
Dialysis probes (CMA12/3 mm, membrane, 20 kD cut-off, Carnegie Medicine, Stockholm, Sweden), were carefully washed before inserting into the guide cannula. The wash was performed with the artificial cerebrospinal fluid (aCSF) medium (NaCl 147 mM, KCl 2.7 mM, CaCl2 1.2 mM, MgCl2 0.85 mM) at room temperature. The dialysis system was then equilibrated at 20° C. at a perfusion rate of 1 μl/min with a Carnegie pump (CMA100). All catheters (FEP tubing, internal volume of 1.2 μl/10 cm, and tubing adaptors) used for microdialysis were treated in the same conditions.
The probes duly prepared were inserted into the guide cannula and the CMA120 Swivel assembly secured to the animal using a plastic collar. Flow through the dialysis probe with aCSF was maintained at a rate of 1 μl/min during the whole experimentation. The first four fractions (corresponding to 2 hours) were discarded to avoid the effects of parenchymal disturbance and to ensure that an approximate steady-state level was reached. Fractions were then collected over a period of 8.5 h during which time the animals remained quiet. The dialysates were automatically collected with an autosampler (microfraction collector CMA 140, Carnegie Medicin) and stored at −80° C. until analysis. […] Perfusion was then maintained for 7 hours with aCSF. The dialysates (30 μl) were collected into 300 μl vials, transferred into dry ice and then kept frozen (−80° C.) until analysis. Frozen samples were shipped to a partner for analysis. At the end of the microdialysis study, a PBS with colored ink was perfused through the probe in order to visualize the dialyzed area.
Catecholamine assay: Concentrations of dopamine, DOPAC, HVA, 5-HIAA, 5-HT, and norepinephrin were determined for each sample by HPLC coupled with electrochemical detection.

## Cc1nnc(-c2cc3c(OC[C@@H](O)CN4CCC(c5ccc(Cl)c(Cl)c5)CC4)cccc3o2)o1 [SON-117, (S)-1-(4-(3,4-dichlorophenyl)piperidino)-3-(2-(5-methyl-1,3,4-oxadiazol-2-yl)benzo(b)furan-4-yloxy)-2-propanol hydrochloride]
T30-T1 h
  5-HIAA (% of respective basal), individual animal: 123.49 % of respective basal and 103.49 % of respective basal and 107.39 % of respective basal and 112.69 % of respective basal and 111.19 % of respective basal and 139.2 % of respective basal and 117.52 % of respective basal and 104.09 % of respective basal
  5-HIAA release, MEAN: 100.34 % of respective basal
  5-HIAA release, individual animals: 98.98 % of respective basal and 79.36 % of respective basal and 110.17 % of respective basal and 105.67 % of respective basal and 80.63 % of respective basal and 95.45 % of respective basal and 117.90 % of respective basal and 114.56 % of respective basal
T1 h 30-T2 h
  5-HIAA (% of respective basal), individual animal: 92.61 % of respective basal and 104.00 % of respective basal and 73.42 % of respective basal and 136.95 % of respective basal and 121.36 % of respective basal and 90.88 % of respective basal and 109.96 % of respective basal and 88.3 % of respective basal
  5-HIAA release, MEAN: 92.27 % of respective basal
  5-HIAA release, individual animals: 107.81 % of respective basal and 80.74 % of respective basal and 99.11 % of respective basal and 100.15 % of respective basal and 74.98 % of respective basal and 49.45 % of respective basal and 122.26 % of respective basal and 103.65 % of respective basal
T1 h-T1 h 30
  5-HIAA (% of respective basal), individual animal: 133.03 % of respective basal and 136.32 % of respective basal and 86.58 % of respective basal and 118.45 % of respective basal and 137.53 % of respective basal and 136.04 % of respective basal and 114.03 % of respective basal and 94.61 % of respective basal
  5-HIAA release, MEAN: 98.46 % of respective basal
  5-HIAA release, individual animals: 102.59 % of respective basal and 87.99 % of respective basal and 119.49 % of respective basal and 107.50 % of respective basal and 64.53 % of respective basal and 82.55 % of respective basal and 108.28 % of respective basal and 114.78 % of respective basal
T2 h 30-T3 h
  5-HIAA (% of respective basal), individual animal: 85.72 % of respective basal and 87.35 % of respective basal and 46.33 % of respective basal and 101.63 % of respective basal and 145.61 % of respective basal and 142.25 % of respective basal and 116.28 % of respective basal and 27.66 % of respective basal
  5-HIAA release, MEAN: 88.58 % of respective basal
  5-HIAA release, individual animals: 90.73 % of respective basal and 88.56 % of respective basal and 94.96 % of respective basal and 87.45 % of respective basal and 59.92 % of respective basal and 79.89 % of respective basal and 107.14 % of respective basal and 99.98 % of respective basal
T2 h-T2 h 30
  5-HIAA (% of respective basal), individual animal: 100.99 % of respective basal and 85.23 % of respective basal and 60.74 % of respective basal and 101.82 % of respective basal and 125.47 % of respective basal and 100.57 % of respective basal and 111.12 % of respective basal and 50.78 % of respective basal
  5-HIAA release, MEAN: 88.16 % of respective basal
  5-HIAA release, individual animals: 82.87 % of respective basal and 87.22 % of respective basal and 100.63 % of respective basal and 93.66 % of respective basal and 63.67 % of respective basal and 70.87 % of respective basal and 109.73 % of respective basal and 96.64 % of respective basal
T3 h 30-T4 h
  5-HIAA (% of respective basal), individual animal: 85.88 % of respective basal and 94.27 % of respective basal and 31.74 % of respective basal and 96.48 % of respective basal and 188.3 % of respective basal and 137.13 % of respective basal and 101.46 % of respective basal and 21.73 % of respective basal
  5-HIAA release, MEAN: 86.84 % of respective basal
T3 h-T3 h 30
  5-HIAA (% of respective basal), individual animal: 129.21 % of respective basal and 80.95 % of respective basal and 41.77 % of respective basal and 96.17 % of respective basal and 133.55 % of respective basal and 113.01 % of respective basal and 113.45 % of respective basal and 29.04 % of respective basal
T4 h 30-T5 h
  5-HIAA (% of respective basal), individual animal: 135.57 % of respective basal and 84.63 % of respective basal and 82.26 % of respective basal and 21.52 % of respective basal and 127.36 % of respective basal and 130.30 % of respective basal and 108.83 % of respective basal and 86.42 % of respective basal
T4 h-T4 h 30
  5-HIAA (% of respective basal), individual animal: 155.28 % of respective basal and 81.87 % of respective basal and 29.82 % of respective basal and 104.10 % of respective basal and 154.95 % of respective basal and 128.712 % of respective basal and 116.56 % of respective basal and 100.63 % of respective basal
T5 h 30-T6 h
  5-HIAA (% of respective basal), individual animal: 139.17 % of respective basal and 82.04 % of respective basal and 19.18 % of respective basal and 72.04 % of respective basal and 120.26 % of respective basal and 106.59 % of respective basal and 103.65 % of respective basal and 79.99 % of respective basal
T5 h-T5 h 30
  5-HIAA (% of respective basal), individual animal: 141.25 % of respective basal and 94.73 % of respective basal and 20.29 % of respective basal and 84.33 % of respective basal and 123.82 % of respective basal and 104.61 % of respective basal and 111.73 % of respective basal and 87.84 % of respective basal
T6 h 30-T7 h
  5-HIAA (% of respective basal), individual animal: 142.73 % of respective basal and 92.55 % of respective basal and 23.25 % of respective basal and 79.21 % of respective basal
T6 h-T6 h 30
  5-HIAA (% of respective basal), individual animal: 150.15 % of respective basal and 87.80 % of respective basal and 10.87 % of respective basal and 82.34 % of respective basal and 124.74 % of respective basal and 107.55 % of respective basal and 96.41 % of respective basal and 77.86 % of respective basal
T0-T30 min
  5-HIAA release, MEAN: 103.44 % of respective basal
